Structures are written as SMILES. Like-named read-outs stand apart in the source and are kept apart here.

Usually IC50 stands for the midpoint of a concentration-inhibition curve. A low value points to greater potency. A word on the EC50: it is the concentration that produces a half-maximal response.

In assay [1] the target is GDP-loaded wild-type KRAS (WT) (Homo sapiens, UniProt P01116). As to the kind of experiment: KRAS (GDP) biochemical TR-FRET probe displacement assay, WT. It counts as binding. Particulars: 2 hours. The method, then: (§1) Compounds are tested for binding to GDP-loaded wild-type KRAS (WT), KRAS-G12C, KRAS-G12D, and KRAS-G12V in a 384-well assay format using a TR-FRET probe displacement assay in buffer consisting of 50 mM Hepes (pH 7.4), 150 mM NaCl, 5 mM MgCl2 and 0.005% Tween-20. […] Compounds are serially diluted (1:3) in DMSO. The LabCyte ECHO Acoustic dispenser was used to pre-spot the assay plates (384-well Non-Binding Surface plates, Corning, Catalog #3824) with 50 nL of compound. 5 μL of 2X enzyme concentration is added to the pre-spotted plates and incubated for 30 minutes before adding 5 μL of 2X concentration of Eu-streptavidin and Cy-5 labelled probe (10 μL final reaction volume). The plates are incubated at room temperature for 2 hours before measuring TR-FRET ratio (665 nm/615 nm) on the Envision multimode plate reader. The ratios are normalized to a positive (saturating concentration of known inhibitor) and negative (DMSO) control and plotted against the log of compound concentration.
A general note: Time-resolved FRET reads energy transfer from a long-lived donor to a nearby acceptor.

The target in assay [2] is GDP-loaded KRAS-G12C (Homo sapiens, UniProt P01116, G12C). As to the kind of experiment: KRAS (GDP) biochemical TR-FRET probe displacement assay, G12C. Particulars: 2 hours. Format: binding. The method, then:
as §1

In assay [3] the target is GDP-loaded KRAS-G12V (Homo sapiens, UniProt P01116, G12V). As to the kind of experiment: KRAS (GDP) biochemical TR-FRET probe displacement assay, G12V. The settings on record: 2 hours. It counts as binding. How it is done:
as §1

For assay [4], the target named is GDP-loaded KRAS-G12D (Homo sapiens, UniProt P01116, G12D). As to the kind of experiment: KRAS (GDP) biochemical TR-FRET probe displacement assay, G12D. It counts as binding. Particulars: 2 hours. The method, then:
as §1

The test system of assay [5] is cellular pERK in Kuramochi (WT KRAS) cells. As to the kind of experiment: Cell based pERK assay, Kuramochi. The settings on record: read-out: Kuramochi pERK EC50. A digest of the protocol:
(§2)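 Cells seeded overnight (5000 AsPC-1 or 7500 others per well; RPMI/10% FBS, DMEM/10% FBS for MIA-PaCa-2), treated with 1:3 serial dilutions for 2 h at 37 °C. Phospho-ERK1/2 (Thr202/Tyr204) measured by HTRF (665/615 nm) after overnight lysis, normalized to DMSO and saturating known-inhibitor controls.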

Assay [6] concerns cellular pERK in MIA-PaCa-2 (KRAS-G12C) cells. Description: Cell based pERK assay, MIA-PaCa-2. Particulars: Homo sapiens, read-out: MIAPaCa2 pERK EC50. In outline:
as §2

In assay [7] the test system is cellular pERK in NCI-H441 (KRAS-G12V) cells. Description: Cell based pERK assay, NCI-H441. Particulars: Homo sapiens, read-out: H441 PERK EC50. A digest of the protocol: as §2
Assay [8] deals with cellular pERK in ASPC-1 (KRAS G12D) cells. As to the kind of experiment: Cell based pERK assay, ASPC-1. Particulars: Homo sapiens, read-out: AsPC1 pERK EC50. In outline:
as §2

The mark [9] stands for this setting: Kuramochi (WT KRAS), 2 hours incubation, HTRF phospho-ERK1/2.
Where [10] appears, read: MIA-PaCa-2 (KRAS-G12C), 2 hours incubation, HTRF phospho-ERK1/2.
Setting [11] is: NCI-H441 (KRAS-G12V), 2 hours incubation, HTRF phospho-ERK1/2.
The mark [12] stands for this setting: ASPC1, ASPC-1 (KRAS G12D), 2 hours incubation, HTRF phospho-ERK1/2.

Chain of GDP-loaded KRAS-G12D (P01116 1-188 isoform P01116-2 G12D): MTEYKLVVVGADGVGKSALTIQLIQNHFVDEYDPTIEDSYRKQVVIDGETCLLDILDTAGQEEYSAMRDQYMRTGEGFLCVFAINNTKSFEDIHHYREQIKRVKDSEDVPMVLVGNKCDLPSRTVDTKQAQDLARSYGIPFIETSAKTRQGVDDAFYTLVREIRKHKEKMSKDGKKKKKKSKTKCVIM
Chain of GDP-loaded KRAS-G12C (P01116 1-188 isoform P01116-2 G12C): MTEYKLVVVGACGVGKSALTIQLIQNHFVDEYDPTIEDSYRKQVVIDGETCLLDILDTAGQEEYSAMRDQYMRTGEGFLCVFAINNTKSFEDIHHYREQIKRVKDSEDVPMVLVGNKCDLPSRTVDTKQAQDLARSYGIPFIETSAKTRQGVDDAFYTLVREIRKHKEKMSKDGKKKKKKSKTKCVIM
Chain of GDP-loaded wild-type KRAS (WT) (P01116 1-188 isoform P01116-2): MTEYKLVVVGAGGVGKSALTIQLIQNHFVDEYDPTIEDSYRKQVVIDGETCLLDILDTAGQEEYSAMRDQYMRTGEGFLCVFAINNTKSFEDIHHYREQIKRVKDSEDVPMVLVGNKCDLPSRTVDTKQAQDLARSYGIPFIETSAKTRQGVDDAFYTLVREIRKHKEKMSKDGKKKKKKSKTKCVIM
Chain of GDP-loaded KRAS-G12V (P01116 1-188 isoform P01116-2 G12V): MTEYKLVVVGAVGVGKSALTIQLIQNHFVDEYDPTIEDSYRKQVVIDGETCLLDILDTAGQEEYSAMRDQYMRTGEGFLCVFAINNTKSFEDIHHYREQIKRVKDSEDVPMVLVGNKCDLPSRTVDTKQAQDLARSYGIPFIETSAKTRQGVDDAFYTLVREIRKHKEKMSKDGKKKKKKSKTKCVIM

For the compound `Cc1c(F)c(N)cc(-c2nc3c4c(nc(OC[C@@]56CCCN5C[C@H](F)C6)nc4c2F)N2C[C@@]4(F)CC[C@](F)(N4)[C@H]2CCC3)c1C(F)(F)F` [Example 4-4], the IC50 in assay [1] was 25.8 nM; in assay [2] it was 46.7 nM; in assay [3], 45.1 nM; in assay [4], greater than 100 nM. Besides, the EC50 in assay [5] (setting [9]) was 15.4 nM; in assay [6] (setting [10]) it was 59.4 nM; in assay [7] (setting [11]), 884 nM; in assay [8] (setting [12]), 175 nM.
Take `N#Cc1c(N)sc2c(F)ccc(-c3nc4c5c(nc(OCC67CCCN6CCC7)nc5c3F)N3C[C@@]5(F)CC[C@](F)(N5)[C@H]3CCC4)c12` [Example 4-7, 2-amino-7-fluoro-4-((6aR,7R,10S)-1,7,10-trifluoro-13-((tetrahydro-1H-pyrrolizin-7a(5H)-yl)methoxy)-5,6,6a,7,8,9,10,11-octahydro-4H-3,11a,12,14,15-pentaaza-7,10-methanocyclohepta[4,5]cycloocta[1,2,3-de]naphthalen-2-yl)benzo[b]thiophene-3-carbonitrile]: the half-inhibitory concentration (IC50) in assay [1] was 10.1 nM; in assay [2], 28.5 nM; in assay [3] it was 44.1 nM; in assay [4], 86.8 nM. The EC50 in assay [5] (setting [9]) is 15.6 nM; in assay [6] (setting [10]), 59.8 nM; in assay [8] (setting [12]) it was 840 nM.
Regarding `C#Cc1c(F)ccc2cc(N)cc(-c3nc4c5c(nc(OC[C@@H]6CCCN6C)nc5c3F)N3C[C@@]5(F)CC[C@](F)(N5)[C@H]3CCC4)c12` [Example 4-8, 5-ethynyl-6-fluoro-4-((6aR,7R,10S)-1,7,10-trifluoro-13-(((S)-1-methylpyrrolidin-2-yl)methoxy)-5,6,6a,7,8,9,10,11-octahydro-4H-3,11a,12,14,15-pentaaza-7,10-methanocyclohepta[4,5]cycloocta[1,2,3-de]naphthalen-2-yl)naphthalen-2-amine], the IC50 in assay [1] is 6.19 nM; in assay [2] it was 13.2 nM; in assay [3] it was 34.7 nM; in assay [4], 57.8 nM. In addition, the figures for the EC50 in assay [5] (setting [9]), in assay [6] (setting [10]) and in assay [8] (setting [12]) were 5.11 nM, 6.73 nM and 169 nM, respectively.
For the compound `C[C@H]1Cc2nc(-c3cc(O)cc4ccc(F)c(F)c34)c(F)c3nc(OCC45CCCN4CCC5)nc(c23)N2C[C@@]3(F)CC[C@](F)(N3)[C@H]12` [Example 4-12, 5,6-difluoro-4-((5S,5aS,6R,9S)-1,6,9-trifluoro-5-methyl-12-((tetrahydro-1H-pyrrolizin-7a(5H)-yl)methoxy)-4,5,5a,6,7,8,9,10-octahydro-3,10a,11,13,14-pentaaza-6,9-methanonaphtho[1,8-ab]eptalene-2-yl)naphthalen-2-ol], the IC50 turned out to be 0.086 nM in assay [1], 0.172 nM in assay [2], 0.353 nM in assay [3] and 1.16 nM in assay [4]. For the same compound, the half-maximal effective concentration (EC50) in assay [5] (2 h) turned out to be 1.71 nM; in assay [6] (MIA PaCa-2, 2 h) it was 0.944 nM; in assay [7] (NCI-H441, 2 h), 3.7 nM; in assay [8] (ASPC1, 2 h), 29 nM.
As to `C[C@H]1Cc2nc(-c3cc(N)cc(Cl)c3C(F)(F)F)c(F)c3nc(OCC45CCCN4CCC5)nc(c23)N2C[C@@]3(F)CC[C@](F)(N3)[C@H]12` [Example 4-17, 3-chloro-5-((8S,8aS,9R,12S)-4,9,12-trifluoro-8-methyl-2-((tetrahydro-1H-pyrrolizin-7a(5H)-yl)methoxy)-7,8,8a,9,10,11,12,13-octahydro-1,3,6,13a,14-pentaaza-9,12-methanonaphtho[1,8-ab]heptalen-5-yl)-4-(trifluoromethyl)aniline], the IC50 came to 0.161 nM in assay [1], 0.479 nM in assay [2], 0.865 nM in assay [3] and 2.79 nM in assay [4]. For the same compound, the EC50 in assay [5] (setting [9]) worked out at 4.32 nM; in assay [6] (setting [10]) it was 1.72 nM; in assay [8] (setting [12]), 38 nM.
As for `CCC1CCCc2cc(N)cc(-c3nc4c5c(nc(OCC67CCCN6CCC7)nc5c3F)N3C[C@@]5(F)CC[C@](F)(N5)[C@H]3CCC4)c21` (stereo partly drawn) [Example 4-24, 5-ethyl-4-((6aR,7R,10S)-1,7,10-trifluoro-13-((tetrahydro-1H-pyrrolizin-7a(5H)-yl)methoxy)-5,6,6a,7,8,9,10,11-octahydro-4H-3,11a,12,14,15-pentaaza-7,10-methanocyclohepta[4,5]cycloocta[1,2,3-de]naphthalen-2-yl)-5,6,7,8-tetrahydronaphthalen-2-amine], the concentration for half-maximal inhibition (IC50) in assay [1], in assay [2], in assay [3] and in assay [4] was greater than 100 nM in each case. Also, the EC50 was 312 nM in assay [5] (setting [9]), 560 nM in assay [6] (setting [10]) and greater than 1000 nM in assay [8] (setting [12]).
In the case of `C#Cc1c(F)ccc2cc(N)cc(-c3nc4c5c(nc(OC[C@@]67CCCN6[C@H](COC(C(F)(F)F)(C(F)(F)F)C(F)(F)F)CC7)nc5c3F)N3C[C@@]5(F)CC[C@](F)(N5)[C@H]3CCC4)c12` [Example 4-28, 5-ethynyl-6-fluoro-4-((6aR,7R,10S)-1,7,10-trifluoro-13-(((3S,7aS)-3-(((1,1,1,3,3,3-hexafluoro-2-(trifluoromethyl)propan-2-yl)oxy)methyl)tetrahydro-1H-pyrrolizin-7a(5H)-yl)methoxy)-5,6,6a,7,8,9,10,11-octahydro-4H-3,11a,12,14,15-pentaaza-7,10-methanocyclohepta[4,5]cycloocta[1,2,3-de]naphthalen-2-yl)naphthalen-2-amine], the IC50 in assay [1] stood at 4.98 nM; in assay [2] it was 7.3 nM; in assay [3], 44.8 nM; in assay [4], 59.4 nM. Also, the 50% effective concentration (EC50) in assay [5] (setting [9]) was found to be 7.5 nM; in assay [6] (setting [10]) it was 5.6 nM; in assay [8] (setting [12]), 117 nM.
Consider `C#Cc1c(F)ccc2cccc(-c3nc4c5c(nc(OCC67CCCN6CCC7)nc5c3F)N3C[C@@]5(F)CC[C@](F)(N5)[C@H]3CCC4)c12` [Example 4-29, (6aR,7R,10S)-2-(8-ethynyl-7-fluoronaphthalen-1-yl)-1,7,10-trifluoro-13-((tetrahydro-1H-pyrrolizin-7a(5H)-yl)methoxy)-5,6,6a,7,8,9,10,11-octahydro-4H-3,11a,12,14,15-pentaaza-7,10-methanocyclohepta[4,5]cycloocta[1,2,3-de]naphthalene], for which the IC50 in assay [1] is 5.99 nM; in assay [2] it was 8.68 nM; in assay [3], 24.8 nM; in assay [4], 38.1 nM. Further, the EC50 turned out to be 6.37 nM in assay [5] (setting [9]), 12.8 nM in assay [6] (setting [10]) and 305 nM in assay [8] (setting [12]).
Take `C#Cc1c(F)ccc2cc(N)cc(-c3nc4c5c(nc(OC[C@]6(C)CN(C)CC/C6=C\F)nc5c3F)N3C[C@@]5(F)CC[C@](F)(N5)[C@@H]3[C@@H](C)C4)c12` [Example 4-39, 5-ethynyl-6-fluoro-4-((5S,5aS,6R,9S)-1,6,9-trifluoro-12-(((S,E)-4-(fluoromethylene)-1,3-dimethylpiperidin-3-yl)methoxy)-5-methyl-4,5,5a,6,7,8,9,10-octahydro-3,10a,11,13,14-pentaaza-6,9methanonaphtho[1,8-ab]heptalen-2-yl)naphthalen-2-amine]: the IC50 in assay [2] amounted to 0.383 nM; in assay [3] it was 0.583 nM; in assay [4], 1.12 nM. Also, the EC50 in assay [5] (setting [9]) came to 3.76 nM; in assay [6] (setting [10]), 0.253 nM; in assay [7] (setting [11]) it was 0.689 nM; in assay [8] (setting [12]), 6.04 nM.
Consider `C[C@H]1Cc2nc(-c3cc(N)cc4ccc(F)c(F)c34)c(F)c3nc(OCC45CCCN4CCC5)nc(c23)N2C[C@@]3(F)CC[C@](F)(N3)[C@H]12` [Example 5-1, 5,6-difluoro-4-((5S,5aS,6R,9S)-1,6,9-trifluoro-5-methyl-12-((tetrahydro-1H-pyrrolizin-7a(5H)-yl)methoxy)-4,5,5a,6,7,8,9,10-octahydro-3,10a,11,13,14-pentaaza-6,9-methanonaphtho[1,8-ab]heptalen-2-yl)naphthalen-2-amine], for which the half-inhibitory concentration (IC50) amounted to 0.271 nM in assay [1], 1.71 nM in assay [2], 7.42 nM in assay [3] and 16 nM in assay [4]. Besides, the EC50 worked out at 2.2 nM in assay [5] (setting [9]), 2.34 nM in assay [6] (setting [10]) and 62.5 nM in assay [8] (setting [12]).

The record behind these values is patent publication US20250042922A1, “KRAS MODULATING COMPOUNDS” (priority 2023, published 2025).
